{"source": "paper PMC7044277", "about": "(Nature Communications, 2020)", "assay_type_in_all_cases": "cell-based", "key": {"320 non-olfactory GPCRs [1]": {"molecular_target": "T1, 320 non-olfactory GPCRs (Homo sapiens, UniProt Q02643)", "T1 construct": "expressed in transfected cells; host or cells: HTLA cells", "T1 sequence (Q02643 23-423)": "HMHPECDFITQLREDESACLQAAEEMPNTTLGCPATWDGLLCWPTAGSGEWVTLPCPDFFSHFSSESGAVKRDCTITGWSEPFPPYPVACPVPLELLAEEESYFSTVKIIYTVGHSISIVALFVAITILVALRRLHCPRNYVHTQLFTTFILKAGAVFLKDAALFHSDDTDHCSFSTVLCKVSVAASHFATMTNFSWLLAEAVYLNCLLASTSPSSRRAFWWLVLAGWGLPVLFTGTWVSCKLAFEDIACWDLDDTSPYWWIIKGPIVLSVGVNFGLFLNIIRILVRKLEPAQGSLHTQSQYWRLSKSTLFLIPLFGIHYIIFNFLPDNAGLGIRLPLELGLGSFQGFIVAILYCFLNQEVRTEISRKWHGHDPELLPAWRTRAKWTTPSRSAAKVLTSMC"}, "320 non-olfactory GPCRs [2]": {"molecular_target": "320 non-olfactory GPCRs (Homo sapiens, UniProt Q96LA9)", "sequence (Q96LA9 whole entry)": "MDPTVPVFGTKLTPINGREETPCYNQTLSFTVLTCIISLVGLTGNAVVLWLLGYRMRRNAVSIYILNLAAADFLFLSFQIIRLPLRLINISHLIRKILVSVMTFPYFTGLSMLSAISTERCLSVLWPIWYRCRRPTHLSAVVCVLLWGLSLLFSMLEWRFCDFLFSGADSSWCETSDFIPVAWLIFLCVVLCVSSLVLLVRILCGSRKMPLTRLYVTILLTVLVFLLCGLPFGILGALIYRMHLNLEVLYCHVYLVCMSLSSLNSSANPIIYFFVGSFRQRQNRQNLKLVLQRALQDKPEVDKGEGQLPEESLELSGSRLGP", "conditions": "receptor MRGPRX4; replicate values, Fig_4g"}, "320 non-olfactory GPCRs [3]": {"molecular_target": "T2, 320 non-olfactory GPCRs (Homo sapiens, UniProt P33032)", "T2 construct": "expressed in transfected cells; host or cells: HTLA cells", "T2 sequence (P33032 whole entry)": "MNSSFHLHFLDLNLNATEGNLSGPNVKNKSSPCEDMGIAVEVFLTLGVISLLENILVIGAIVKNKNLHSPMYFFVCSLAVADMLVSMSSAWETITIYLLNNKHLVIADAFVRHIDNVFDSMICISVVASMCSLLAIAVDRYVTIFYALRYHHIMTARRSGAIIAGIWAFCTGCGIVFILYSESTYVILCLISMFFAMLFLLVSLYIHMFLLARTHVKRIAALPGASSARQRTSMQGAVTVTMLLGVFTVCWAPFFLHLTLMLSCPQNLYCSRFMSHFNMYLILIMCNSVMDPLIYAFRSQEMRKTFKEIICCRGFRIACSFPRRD", "conditions": "receptor MC5R; replicate values, Fig_4g"}, "320 non-olfactory GPCRs [4]": {"molecular_target": "T3, 320 non-olfactory GPCRs (Homo sapiens, UniProt P50052)", "T3 construct": "expressed in transfected cells; host or cells: HTLA cells", "T3 sequence (P50052 whole entry)": "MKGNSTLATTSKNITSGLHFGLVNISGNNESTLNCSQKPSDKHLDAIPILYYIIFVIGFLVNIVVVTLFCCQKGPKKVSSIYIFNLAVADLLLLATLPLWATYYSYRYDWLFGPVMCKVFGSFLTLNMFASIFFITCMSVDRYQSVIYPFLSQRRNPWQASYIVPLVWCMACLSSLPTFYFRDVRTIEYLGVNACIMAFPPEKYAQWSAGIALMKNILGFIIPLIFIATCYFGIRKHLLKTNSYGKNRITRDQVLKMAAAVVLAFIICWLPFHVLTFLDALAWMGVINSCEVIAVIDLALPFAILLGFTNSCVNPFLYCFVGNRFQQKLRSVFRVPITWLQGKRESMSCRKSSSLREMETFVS"}}, "note": "Where “and” joins values, the source holds several entries; their conditions need not be identical. Equal values may be shown once.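 Throughout, for Fold of Basal: compound tested at 1 µM final concentration.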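 Throughout, for GPCRome agonism screen response: fold over basal response of each receptor without drug.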"}
{"smiles": "CCOc1cccc2cc(C(C)NCC3(O)CCCCC3)oc12", "note": "(stereo not shown) [O4LE6]", "values": [{"measurement": "Fold of Basal", "setting": "320 non-olfactory GPCRs [1]", "result": "1.559 and 1.547 and 1.735 and 1.472"}, {"measurement": "GPCRome agonism screen response", "setting": "320 non-olfactory GPCRs [2]", "result": "0.3813 and 0.7022 and 0.804 and 1.112"}, {"measurement": "GPCRome agonism screen response", "setting": "320 non-olfactory GPCRs [3]", "result": "1.253 and 1.116 and 1.497 and 1.062"}, {"measurement": "Fold of Basal", "setting": "320 non-olfactory GPCRs [4]", "result": "1.003 and 1.182 and 1.322 and 1.107"}]}
